# Reference: US20070191422A1 (priority 2003, published 2007)
# Biological target: α7 nAChR subtype (Rattus norvegicus, UniProt Q05941)
# Assay type: binding
# Sequence of α7 nAChR subtype (Q05941 23-502 limits assumed): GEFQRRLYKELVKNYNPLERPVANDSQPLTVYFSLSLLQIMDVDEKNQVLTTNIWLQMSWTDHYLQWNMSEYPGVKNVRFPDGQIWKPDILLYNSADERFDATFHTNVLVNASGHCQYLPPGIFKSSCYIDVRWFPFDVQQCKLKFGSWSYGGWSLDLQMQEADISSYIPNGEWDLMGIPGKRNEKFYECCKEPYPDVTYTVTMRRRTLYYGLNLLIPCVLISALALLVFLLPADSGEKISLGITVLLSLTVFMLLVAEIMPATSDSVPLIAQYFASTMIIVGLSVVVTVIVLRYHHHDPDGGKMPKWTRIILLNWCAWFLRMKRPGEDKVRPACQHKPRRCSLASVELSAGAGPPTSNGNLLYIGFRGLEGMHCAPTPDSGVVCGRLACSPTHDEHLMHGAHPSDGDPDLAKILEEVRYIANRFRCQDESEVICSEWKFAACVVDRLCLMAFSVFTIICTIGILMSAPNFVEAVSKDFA
substance,measurement,value
^125I-α—Bungarotoxin [^125I-α-BTX],Kd,1.67 nM
